Reference: patent US6603023B2 (priority 1996, dated 2003)
“And” between values parts separate entries of the source, which are not always exact repeats. Equal entries are not always repeated. Structures can show the parent of a compound that is named as a salt. Where two headings read alike, the source gives them in different places.

Experiments:
[1] = test system: CCRF-CEM human T-cell acute lymphoblastic leukemia cell line; experiment: XTT cytotoxicity (cell growth inhibition), CCRF-CEM; details: Homo sapiens, CCRF-CEM, 72 h, Table 1A; XTT
Procedure, shortened: (§1)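 Growth was read by XTT/PMS reduction over 4 h at 37 °C after 72 h of compound treatment, with absorbance at 450 nm and 630 nm. CCRF-CEM, P388 and their resistant sublines, grown continuously with their selecting drugs, were cultured in duplicate at 5×10^4 cells/mL. The medium was RPMI-1640 with 10% FBS.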

[2] = test system: murine leukemic P388/0; experiment: XTT cytotoxicity, P388/0; format: cell-based; details: Mus musculus, P388, 72 h
Protocol: (§2) The DC-3F hamster lung fibroblast cell line and its actinomycin D-selected sublines (DC-3F/ADII and DC-3F/ADX) were obtained from the Memorial Sloan-Kettering Cancer Center (MSKCC).
(§3) The drug-resistant cell lines were continuously cultured in the presence of the selecting agent, AD, DX, VBL or VM to maintain the drug resistant phenotypes. […] All cells were cultured in RPMI 1640-10% FBS at 37° C. 5% CO2 (see below).
(§4) The cells were cultured at an initial density of 5×10^4 cells/mL. They were maintained in a 5% CO2-humidified atmosphere at 37° C. in RPMI-1640 medium (GIBCO-BRL, Gaithersburg, Md.) containing penicillin (100 U/mL), streptomycin ([…]) (GIBCO-BRL) and 10% heat inactivate fetal bovine serum. Culture for cell suspension (such as for CCRF-CEM, P388 and sublines), were performed by the XTT-microculture tetrazonium method (Scudiero, D. A. et al., Cancer Res. 1988, 48, 4827-4833) in duplicate in 96-well microtiter plates.
(§5) 2′,3′-Bis(methoxy-4-nitro-5-sufophenyl)-5-[(phenylamino)carbonyl]2H-tetrazolium hyudroxide (XTT) was prepared at 1 mg/mL in prewarmed (37° C.) medium without serum. Phenazine methosulfate (PMS) and fresh XTT were mixed together to obtain 0.025 mM PMS-XTT solution (25 μL of the stock 5 mM PMS was added per 5 mL of 1 mg/mL XTT). Following a 72 h incubation, 50 μL of the assay aliquots were added to each well of the cell culture. After incubation at 37° C. for 4 h, absorbance at 450 nm and 630 nm was measured with a microplate reader (EL340, Bio-Tek Instruments, Inc., Winooski, Vt.).

[3] = test system: MCF-7/Adr; experiment: cells; format: cell-based, human; details: Homo sapiens, NCI/ADR-RES, 72 h
Protocol: Cultures were fixed with trichloroacetic acid and then stained for 30 min with 0.4% suforhodamine B dissolved in 1% acetic acid. Unbound dye was removed by acetic acid washes, and the protein-bound dye was extracted with an unbuffered Tris base (tris(hydroxy-methyl)aminomethane) for determination of absorbance at 570 nm in a 96-well microtiter plate reader. The experiments were carried out in duplicate. Each run entailed six to seven concentrations of the tested drugs.

[4] = test system: SK-N-FI; experiment: cells; format: cell-based, human; details: Homo sapiens, SK-N-FI, 72 h
Protocol: as §3
(§6) The cytotoxicity of the drug toward the monolayer cell cultures (such as DC-3F, MCF-7, SK-N-As and sublines) was determined in 96-well microtiter plates by the SRB method as described by Skehan and co-workers (Skehan, P., et al., J. Natl. Cancer Inst. 1990, 82, 1107-1112) for measuring the cellular protein content. Cultures were fixed with trichloroacetic acid and then stained for 30 min with 0.4% suforhodamine B dissolved in 1% acetic acid. Unbound dye was removed by acetic acid washes, and the protein-bound dye was extracted with an unbuffered Tris base (tris(hydroxy-methyl)aminomethane) for determination of absorbance at 570 nm in a 96-well microtiter plate reader. The experiments were carried out in duplicate. Each run entailed six to seven concentrations of the tested drugs. Data were analyzed with the median-effect plot (Chou, T.-C. & Talalay, P. T. (1984) Adv. Enzyme Regul. 22, 27-55) using a previously described computer program (Chou, J., & Chou T.-C. 1987, Dose-effect analysis with microcomputers: Quantitation of ED50, synergism, antagonism, low-dose risk, reception-ligand binding and enzyme kinetics, IBM-PC software and manual, Biosoft, Cambridge, U.K.).

[5] = test system: P388/Adr; experiment: cells; format: cell-based, murine; details: Mus musculus, P388/ADR, 72 h
Protocol: as §3, §4, §5

[6] = test system: human neuroblastoma SK-N-As; experiment: SRB cytotoxicity, SK-N-As; format: cell-based; details: Homo sapiens, SK-N-AS, 72 h
Protocol: as §2, §3, §6

[7] = test system: human mammary carcinoma MX-1 xenograft
Protocol: (§7) DMSO was used as a vehicle for epothilones. Each mouse received ≦40 μL DMSO in all experiments.
(§8) Athymic nude mice (nu/nu) were used for MX-1 and MCF-7/Adr human mammary carcinoma xenografts. Mice were obtained from Taconic Laboratory Animals and Service (Germantown, N.Y.: outbred, Swiss background).

[8] = test system: DC-3F/ADX; experiment: cells; format: cell-based, hamster; details: DC3F/ADX, 72 h, Table 1C; SRB
Protocol: as §2, §3, §6
Concerning Table 3, experiments were carried out using the cell lines DC-3F (parent hamster lung cells), DC-3F/ADII (moderate multidrug-resistant (MDR) cells) and DC-3F/ADX (very strong MDR cells).

[9] = test system: DC-3F hamster lung fibroblast cell line; experiment: SRB cytotoxicity, DC-3F; format: cell-based; details: Mesocricetus auratus, DC3F, 72 h, Table 1C; SRB
Protocol: as §2, §3, §6

[10] = in vivo; details: male, athymic nude (nu/nu), outbred, Swiss background, mouse, in vivo, ip
Protocol: as §7, §8

[11] = test system: MDR human mammary adenocarcinoma MCF-7/Adr xenograft; experiment: in vivo
Protocol: as §7, §8

[12] = test system: MCF-7; experiment: SRB cytotoxicity, MCF-7; format: cell-based, human; details: Homo sapiens, MCF7, 72 h
Protocol: as §6

[13] = test system: CCRF-CEM/VBL100; experiment: cells; format: cell-based, human; details: Homo sapiens, CCRF-CEM, 72 h, Table 1A; XTT
Procedure, shortened: as §1

[14] = test system: CCRF-CEM/VM1; experiment: cells; format: cell-based, human; details: Homo sapiens, CCRF-CEM, 72 h, Table 1A; XTT
Procedure, shortened: as §1

[15] = test system: CCRF-CEM/Taxol®; experiment: cells; format: cell-based, human; details: Homo sapiens, CCRF-CEM, 72 h
Procedure, shortened: as §1

[16] = male, athymic nude (nu/nu), outbred, Swiss background, mouse, in vivo
[17] = high doses: Taxol 12, Adriamycin 3, Camptothecin 3.0 mg/kg i.p. day 8,10,12,14,16

With `COc1cccc2c1C(=O)c1c(O)c3c(c(O)c1C2=O)C[C@@](O)(C(=O)CO)C[C@@H]3O[C@H]1C[C@H](N)[C@H](O)[C@H](C)O1` [Adriamycin, doxorubicin or adriamycin HCl] the IC50 [1] was 36 nM, the IC50 [2] was 5.5 nM and the IC50 [3] was 216 nM. For the same compound, the IC50 [4] was 1420 nM, the IC50 [5] was 2650 nM and the IC50 [6] was 77 nM. For the same compound, the “Tumor Disappearance” value ([7]; 2 mg/kg i.p. d8,10,12,14,16) was 1/10, the “Tumor Disappearance” value ([7]; 3 mg/kg i.p. d8,10,12,14,16) was 4/6 and the tumor volume reduction ([7]; adriamycin 2 mg/kg i.p. Q2Dx5 from day 8) was 28%. The lethality [7, 16] was 4/6, the “lethality (mice died of toxicity)” value [7, 16] was 1/10 and the IC50 [8] was 2240 nM. For the same compound, the IC50 [9] was 18 nM, the LD50 [10] was 3 mg/kg and the tumor growth suppression ([11]; DX 2 mg/kg) was “slight growth suppression”. For the same compound, the “Average Tumor Volume (T/C), Day 11” value [11, 17] was 0.66 T/C, the “Average Tumor Volume (T/C), Day 13” value [11, 17] was 0.83 T/C and the “Average Tumor Volume (T/C), Day 15” value [11, 17] was 0.57 T/C. For the same compound, the “Average Tumor Volume (T/C), Day 17” value [11, 17] was 0.53 T/C, the lethality [11, 16] was 3/6 and the tumor size reduction ([11]; mouse, in vivo) was 22%. The “Average Tumor Size (T/C)” value ([11]; mouse, in vivo, HCl) was 0.78 and 0.70 and 0.68 and 0.84 and 0.53 and 0.66 and 0.83 and 0.57, the IC50 [12] was 57 nM and the IC50 [13] was 1740 nM. The IC50 [14] was 128 nM and the IC50 [15] was 82 nM.
